In patent publication US12649750B2, “Macrocyclic compounds, compositions, and methods of using thereof” (Sionna Therapeutics Inc., priority 2022, dated 2026):

What was measured:
NBD1 = target: T1, NBD1 (Homo sapiens, UniProt P13569); test: Aggregation analysis using differential static light scattering (DSLS), thermal stability of NBD1 (ΔTagg); assay type: binding; details: ΔTagg versus DMSO control, NBD1 0.2 mg/ml
T1 construct: Purified recombinant NBD1 was produced using previously described methods; made in house
T1 sequence (P13569 423-646 limits assumed): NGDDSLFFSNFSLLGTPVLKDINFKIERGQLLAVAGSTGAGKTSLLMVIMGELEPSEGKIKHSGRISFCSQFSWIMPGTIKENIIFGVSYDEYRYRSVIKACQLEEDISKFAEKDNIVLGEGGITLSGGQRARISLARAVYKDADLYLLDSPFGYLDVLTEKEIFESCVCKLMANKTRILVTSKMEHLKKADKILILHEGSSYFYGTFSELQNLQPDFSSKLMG
How it was run: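 Purified recombinant NBD1 at 0.2 mg/ml in Tris buffer pH7.6 with 2 mM ATP, 5 mM MgCl2, 2 mM DTT and 1% glycerol was mixed with DMSO-dissolved compounds under mineral oil. Plates were heated at 1° C. per minute to 70° C., light scattering imaged every 0.5° C.; Tagg from curve inflection, minus DMSO-control mean.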

CFTR = target: T2, CFTR (Homo sapiens, UniProt P13569, DEL508-508); test: TECC24 AUC fold over DMSO @10 μM, CFTR-mediated transepithelial chloride transport in CF-HBE cells; assay type: cell-based; details: test agent AUC divided by DMSO vehicle AUC, primary CF-HBE cells, ΔF508 homozygous donor, 48 hours incubation
T2 construct: Primary human bronchial epithelial cells from a ΔF508 homozygous CF donor; host or cells: primary human bronchial epithelial cells (CF-HBE), ΔF508 homozygous donor
T2 sequence (P13569 with tags, fused parts or gaps DEL508-508): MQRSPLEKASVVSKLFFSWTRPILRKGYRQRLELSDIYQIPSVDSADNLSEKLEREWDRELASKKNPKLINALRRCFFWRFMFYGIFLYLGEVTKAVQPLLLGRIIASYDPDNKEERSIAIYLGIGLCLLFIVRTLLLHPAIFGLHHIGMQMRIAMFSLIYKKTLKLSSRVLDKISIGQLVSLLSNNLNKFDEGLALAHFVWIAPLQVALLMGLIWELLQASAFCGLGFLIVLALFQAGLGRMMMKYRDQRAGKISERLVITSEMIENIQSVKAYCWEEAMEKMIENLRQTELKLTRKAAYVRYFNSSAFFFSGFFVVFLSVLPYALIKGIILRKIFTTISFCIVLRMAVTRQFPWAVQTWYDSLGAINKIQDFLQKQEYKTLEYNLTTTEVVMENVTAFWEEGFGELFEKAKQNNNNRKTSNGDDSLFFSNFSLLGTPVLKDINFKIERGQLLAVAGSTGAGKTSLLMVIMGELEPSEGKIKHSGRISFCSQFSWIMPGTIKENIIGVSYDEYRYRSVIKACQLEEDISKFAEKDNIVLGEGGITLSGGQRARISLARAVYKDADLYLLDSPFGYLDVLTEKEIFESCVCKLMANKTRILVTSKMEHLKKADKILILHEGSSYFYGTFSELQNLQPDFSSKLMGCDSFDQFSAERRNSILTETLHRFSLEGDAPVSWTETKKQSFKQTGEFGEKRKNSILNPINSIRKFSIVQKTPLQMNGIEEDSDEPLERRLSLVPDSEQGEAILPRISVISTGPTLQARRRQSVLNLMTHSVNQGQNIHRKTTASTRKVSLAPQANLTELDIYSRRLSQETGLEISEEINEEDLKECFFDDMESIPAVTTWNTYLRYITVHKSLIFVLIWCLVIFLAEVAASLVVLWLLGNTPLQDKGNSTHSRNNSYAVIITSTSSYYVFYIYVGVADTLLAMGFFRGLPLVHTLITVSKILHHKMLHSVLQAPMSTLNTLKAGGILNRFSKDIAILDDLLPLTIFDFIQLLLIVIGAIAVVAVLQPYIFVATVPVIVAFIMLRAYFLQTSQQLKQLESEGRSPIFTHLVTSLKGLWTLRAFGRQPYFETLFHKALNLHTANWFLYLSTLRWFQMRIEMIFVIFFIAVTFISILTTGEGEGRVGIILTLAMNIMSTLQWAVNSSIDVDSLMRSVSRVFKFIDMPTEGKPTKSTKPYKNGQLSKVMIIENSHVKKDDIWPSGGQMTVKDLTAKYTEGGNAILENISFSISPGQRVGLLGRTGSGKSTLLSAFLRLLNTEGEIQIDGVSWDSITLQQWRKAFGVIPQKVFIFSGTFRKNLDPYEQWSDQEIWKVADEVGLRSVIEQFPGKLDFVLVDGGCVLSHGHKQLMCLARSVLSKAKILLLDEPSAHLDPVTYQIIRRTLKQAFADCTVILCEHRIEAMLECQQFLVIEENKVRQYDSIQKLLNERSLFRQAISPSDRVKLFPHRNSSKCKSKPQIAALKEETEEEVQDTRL
How it was run: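 Value is ratio of test-agent to DMSO AUC of equivalent transepithelial Cl− current, integrated from forskolin (10 μM) stimulation to CFTR inhibitor-172 (20 μM) block, with benzamil 10 μM present. CF-HBE (ΔF508/ΔF508) cultures had 48 h compound exposure at 10 μM, 36.5° C before recording.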

## C/C(=C\c1cc(F)cc(C2(C)CCCC(C)(C)CS(=O)(=O)CCc3c(c(F)c(F)c4[nH]ccc34)Oc3ccc(F)c(c3)-c3nc2nn3C)c1)C(=O)O (single isomer, unassigned) [Compound 17B, (E)-3-(3-fluoro-5-((Z)-26,46,47-trifluoro-11,9,9,13-tetramethyl-7,7-dioxido-1I1H,41H-3-oxa-7-thia-4(5,4)-indola-1(5,3)-triazola-2(1,3)-benzenacyclotridecaphane-13-yl)phenyl)-2-methylacrylic acid]
NBD1
  DSLS 3D (100 μM ΔT): C (a value greater than 10 °C and less than or equal to 25 °C is marked “C”)
CFTR
  TECC (AUC, 10 μM): A (a TECC value less than 12 is marked “A”)

## [2H]C([2H])([2H])C1(c2cccc(CC(C)C(=O)O)c2F)CCCC(C)(C)CS(=O)(=O)CCc2c(c(F)cc3[nH]ccc23)Oc2ccc(F)c(c2)-c2nc1nn2C (single isomer, unassigned) [Compound 18A, 3-[3-[22,28-difluoro-3,10,10-trimethyl-12,12-dioxo-6-(trideuteriomethyl)-24-oxa-12lambda6-thia-3,4,19,30-tetrazapentacyclo[23.3.1.12,5.015,23.016,20]triaconta-1(29),2(30),4,15,17,20,22,25,27-nonaen-6-yl]-2-fluoro-phenyl]-2-methyl-propanoic acid]
NBD1
  DSLS 3D (100 μM ΔT): B (a value above 5 °C and less than or equal to 10 °C is marked “B”)
CFTR
  TECC (AUC, 10 μM): A (a TECC value less than 12 is marked “A”)

## [2H]C([2H])([2H])C1(c2cccc(CC(C)C(=O)O)c2F)CCCC(C)(C)CS(=O)(=O)CCc2c(c(F)cc3[nH]ccc23)Oc2ccc(F)c(c2)-c2nc1nn2C (single isomer, unassigned) [Compound 18B, 3-[3-[22,28-difluoro-3,10,10-trimethyl-12,12-dioxo-6-(trideuteriomethyl)-24-oxa-12lambda6-thia-3,4,19,30-tetrazapentacyclo[23.3.1.12,5.015,23.016,20]triaconta-1(29),2(30),4,15,17,20,22,25,27-nonaen-6-yl]-2-fluoro-phenyl]-2-methyl-propanoic acid]
NBD1
  DSLS 3D (100 μM ΔT): C (a value greater than 10 °C and less than or equal to 25 °C is marked “C”)
CFTR
  TECC (AUC, 10 μM): B (a value between 12-20 is marked “B”)

## CC(Oc1cccc(C2(C)CCCC(C)(C)CS(=O)(=O)CCc3c(c(F)cc4[nH]ccc34)Oc3ccc(F)c(c3)-c3nc2nn3C)c1)C(=O)O (single isomer, unassigned) [Compound 19A, 2-[3-[22,28-difluoro-3,6,10,10-tetramethyl-12,12-dioxo-24-oxa-12 6-thia-3,4,19,30-tetrazapentacyclo[23.3.1.12,5.015,23.016,20]triaconta-1(29),2(30),4,15,17,20,22,25,27-nonaen-6-yl]phenoxy]propanoic Acid]
NBD1
  DSLS 3D (100 μM ΔT): C (a value greater than 10 °C and less than or equal to 25 °C is marked “C”)
CFTR
  TECC (AUC, 10 μM): C (a value between 20 and 80 is marked “C”)

## CC(Cc1cccc(C2(C#N)CCCC(C)(C)CS(=O)(=O)CCc3c(c(F)cc4[nH]ccc34)Oc3ccc(F)c(c3)-c3nc2nn3C)c1)C(=O)O (single isomer, unassigned) [Compound 20A, 3-[3-[6-cyano-22,28-difluoro-3,10,10-trimethyl-12,12-dioxo-24-oxa-12lambda6-thia-3,4,19,30-tetrazapentacyclo[23.3.1.12,5.015,23.016,20]triaconta-1(29),2(30),4,15,17,20,22,25,27-nonaen-6-yl]phenyl]-2-methyl-propanoic Acid]
NBD1
  DSLS 3D (100 μM ΔT): C (a value greater than 10 °C and less than or equal to 25 °C is marked “C”)
CFTR
  TECC (AUC, 10 μM): C (a value between 20 and 80 is marked “C”)

## CC(Cc1cccc(C2(C#N)CCCC(C)(C)CS(=O)(=O)CCc3c(c(F)cc4[nH]ccc34)Oc3ccc(F)c(c3)-c3nc2nn3C)c1)C(=O)O (single isomer, unassigned) [Compound 20B, 3-[3-[6-cyano-22,28-difluoro-3,10,10-trimethyl-12,12-dioxo-24-oxa-12lambda6-thia-3,4,19,30-tetrazapentacyclo[23.3.1.12,5.015,23.016,20]triaconta-1(29),2(30),4,15,17,20,22,25,27-nonaen-6-yl]phenyl]-2-methyl-propanoic acid]
NBD1
  DSLS 3D (100 μM ΔT): A (an ΔTagg value less than or equal to 5 °C is marked “A”)
CFTR
  TECC (AUC, 10 μM): A (a TECC value less than 12 is marked “A”)

## CC1(C)CCCC(c2cccc(CCC(=O)O)c2)n2cc(C#N)c(n2)-c2cc(ccc2F)Oc2c(F)cc3[nH]ccc3c2CCS(=O)(=O)C1 (single isomer, unassigned) [Compound 22B, 3-[3-[3-cyano-22,28-difluoro-10,10-dimethyl-12,12-dioxo-24-oxa-12lambda6-thia-5,19,30-triazapentacyclo[23.3.1.12,5.015,23.016,20]triaconta-1(29),2(30),3,15,17,20,22,25,27-nonaen-6-yl]phenyl]propanoic acid]
NBD1
  DSLS 3D (100 μM ΔT): A (an ΔTagg value less than or equal to 5 °C is marked “A”)
CFTR
  TECC (AUC, 10 μM): B (a value between 12-20 is marked “B”)

## CC1(C)CCCC(c2cccc(CCC(=O)O)c2)n2cc(C#N)c(n2)-c2cc(ccc2F)Oc2c(F)cc3[nH]ccc3c2CCS(=O)(=O)C1 (single isomer, unassigned) [Compound 22C, 3-[3-[3-cyano-22,28-difluoro-10,10-dimethyl-12,12-dioxo-24-oxa-12lambda6-thia-5,19,30-triazapentacyclo[23.3.1.12,5.015,23.016,20]triaconta-1(29),2(30),3,15,17,20,22,25,27-nonaen-6-yl]phenyl]propanoic acid]
NBD1
  DSLS 3D (100 μM ΔT): C (a value greater than 10 °C and less than or equal to 25 °C is marked “C”)
CFTR
  TECC (AUC, 10 μM): C (a value between 20 and 80 is marked “C”)

## CC1(C)CCCC(c2cccc(CCC(=O)O)c2)n2ccc(n2)-c2cc(ccc2F)Oc2c(F)cc3[nH]ccc3c2CCS(=O)(=O)C1 (single isomer, unassigned) [Compound 24A, 3-[3-[22,28-difluoro-10,10-dimethyl-12,12-dioxo-24-oxa-12lambda6-thia-5,19,30-triazapentacyclo[23.3.1.12,5.015,23.016,20]triaconta-1(29),2(30),3,15,17,20,22,25,27-nonaen-6-yl]phenyl]propanoic Acid]
NBD1
  DSLS 3D (100 μM ΔT): B (a value above 5 °C and less than or equal to 10 °C is marked “B”)
CFTR
  TECC (AUC, 10 μM): A (a TECC value less than 12 is marked “A”)

## CC1(C)CCCC(c2cccc(CCC(=O)O)c2)n2ccc(n2)-c2cc(ccc2F)Oc2c(F)cc3[nH]ccc3c2CCS(=O)(=O)C1 (single isomer, unassigned) [Compound 24B, 3-[3-[22,28-difluoro-10,10-dimethyl-12,12-dioxo-24-oxa-12lambda6-thia-5,19,30-triazapentacyclo[23.3.1.12,5.015,23.016,20]triaconta-1(29),2(30),3,15,17,20,22,25,27-nonaen-6-yl]phenyl]propanoic Acid]
NBD1
  DSLS 3D (100 μM ΔT): C (a value greater than 10 °C and less than or equal to 25 °C is marked “C”)
CFTR
  TECC (AUC, 10 μM): A (a TECC value less than 12 is marked “A”)

## CC1(C)CCCC(C)(c2cccc(CCC(=O)O)c2)c2c[nH]c(n2)-c2cc(ccc2F)Oc2c(F)cc3[nH]ccc3c2CCS(=O)(=O)C1 (single isomer, unassigned) [Compound 27A, 3-[3-(22,28-difluoro-6,10,10-trimethyl-12,12-dioxo-24-oxa-12lambda6-thia-3,19,30-triazapentacyclo[23.3.1.12,5.015,23.016,20]triaconta-1(29),2,4,15,17,20,22,25,27-nonaen-6-yl)phenyl]propanoic acid]
NBD1
  DSLS 3D (100 μM ΔT): B (a value above 5 °C and less than or equal to 10 °C is marked “B”)
CFTR
  TECC (AUC, 10 μM): A (a TECC value less than 12 is marked “A”)

## CC1(C)CCCC(C)(c2cccc(CCC(=O)O)c2)c2c[nH]c(n2)-c2cc(ccc2F)Oc2c(F)cc3[nH]ccc3c2CCS(=O)(=O)C1 (single isomer, unassigned) [Compound 27B, 3-[3-(22,28-difluoro-6,10,10-trimethyl-12,12-dioxo-24-oxa-12lambda6-thia-3,19,30-triazapentacyclo[23.3.1.12,5.015,23.016,20]triaconta-1(29),2,4,15,17,20,22,25,27-nonaen-6-yl)phenyl]propanoic acid]
NBD1
  DSLS 3D (100 μM ΔT): C (a value greater than 10 °C and less than or equal to 25 °C is marked “C”)
CFTR
  TECC (AUC, 10 μM): C (a value between 20 and 80 is marked “C”)

## CC(Cc1cccc(C2(C)CCOC(C)(C)CS(=O)(=O)CCc3c(c(F)cc4[nH]ccc34)Oc3ccc(F)c(c3)-c3nc2nn3C)c1)C(=O)O (single isomer, unassigned) [Compound 28A, 3-[3-(22,28-difluoro-3,6,10,10-tetramethyl-12,12-dioxo-9,24-dioxa-12lambda6-thia-3,4,19,30-tetrazapentacyclo[23.3.1.12,5.015,23.016,20]triaconta-1(29),2(30),4,15,17,20,22,25,27-nonaen-6-yl)phenyl]-2-methyl-propanoic Acid]
NBD1
  DSLS 3D (100 μM ΔT): C (a value greater than 10 °C and less than or equal to 25 °C is marked “C”)
CFTR
  TECC (AUC, 10 μM): C (a value between 20 and 80 is marked “C”)
